Test [1] concerns HCV genotype 1b replicon. The experiment in a line: HCV replicon assay, genotype 1b replicon EC50. The format is cell-based, Hepatitis C virus. Particulars: read-out: EC50 [gt-1b]. In short, it runs like this: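 Replicon cells (Neo^r, some luciferase:Neo^r fusion); G418 removed at plating; compound dilution series, 24-48 h. Readout: RNA by 32P-probe hybridization/protection or TaqMan, normalized to cyclophilin A RNA, or luciferase. EC50 vs DMSO control, 4-parameter fit.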

Test [2] addresses HCV NS3/4A protease A156T mutant (Hepatitis C virus genotype 1b, UniProt P26663, A1182T). The experiment in a line: HCV NS3/4A protease time-resolved fluorescence (TRF) assay, Ki against A156T mutant. It is filed as biochemical. Particulars: read-out: IC50 [gt-1b A156T]. As for the experimental part:
(§1) Measuring NS3/4A Inhibitory Activity (Ki) Against Genotype 1b, Against A156T Mutants and Against Genotype 3a
(§2) One assay for measuring inhibitory activity is HCV NS3 protease time-resolved fluorescence (TRF) assay as described below and in Mao et al., Anal. Biochem. 373:1-8, 2008 and International Patent Application Publication WO 2006/102087. A NS3 protease assay can be performed, for example, in a final volume of 20 μl assay buffer containing 50 mM HEPES, pH 7.5, 150 mM NaCl, 15% glycerol, 0.15% TRITON X-100, 10 mM DTT, and 0.1% PEG 8000. NS3 and NS4A protease is pre-incubated with various concentrations of inhibitors in DMSO for 30 min. The reaction is initiated by adding the TRF peptide substrate (final concentration 25 nM). NS3 mediated hydrolysis of the substrate was run for 2.5 hours at room temperature. Product fluorescence is detected using A Pherastar Plus plate reader (BMG) or Envision (Perkin Elmer Life and Analytical Sciences with excitation at 340 nm and emission at 615 nm using the appropriate delay time optimized for the europium fluorescence probe. Testing concentrations of different enzyme forms are selected to result in a signal to background ratio (S/B) of 10-30. IC50 values are derived using a standard four-parameter fit to the data. Ki values are derived from IC50 values using the following formula, IC50=Ki(1+[S]/KM), Eqn (1), where [S] is the concentration of substrate peptide in the reaction and KM is the Michaelis constant. See P. Gallinari et al., 38 BIOCHEM. 5620-32 (1999); P. Gallinari et al., 72 J. VIROL. 6758-69 (1998); M. Taliani et al., 240 ANAL. BIOCHEM. 60-67 (1996); Mao et al., Analytical Biochemistry 373: 1-8, 2008.
(§3) The assay described above was run against genotype 1b at a concentration of 0.2 nM, against A156T mutant strains at a concentration of 0.4 nM, and against genotype 3a at a concentration of 0.025 nM.

Test [3] has as its target HCV NS3/4A protease genotype 1b (Hepatitis C virus genotype 1b, UniProt P26663). The experiment in a line: HCV NS3/4A protease time-resolved fluorescence (TRF) assay, Ki against genotype 1b. The format is biochemical. The essentials: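 Time-resolved fluorescence readout of NS3/4A cleavage of 25 nM europium-labelled peptide over 2.5 h at room temperature, enzyme levels set for signal/background 10–30 (0.2, 0.4, 0.025 nM for 1b, A156T, 3a). Ki by IC50=Ki(1+[S]/KM).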

Test [4] has as its target HCV NS3/4A protease genotype 3a (Hepatitis C virus genotype 3a, UniProt Q81495). The experiment in a line: HCV NS3/4A protease time-resolved fluorescence (TRF) assay, Ki against genotype 3a. The format is biochemical. As for the experimental part: as §1, §2, §3
Setting [5] is: Hepatitis C virus, genotype 1b replicon.
Setting [6] is: NS3/4A gt-1b A156T mutant, enzyme 0.4 nM.
Where [7] appears, read: IC50 [gt-1b], NS3/4A protease TRF assay, genotype 1b enzyme 0.2 nM.

Like-named read-outs stand apart in the source and are kept apart here.

A word on the EC50: it is the concentration that produces a half-maximal response. As a reminder, the IC50 is the concentration needed to halve the response being measured. `Cc1nc2ccccc2c2c1O[C@@]1(CC2)C[C@H]2C(=O)N[C@]3(C(=O)NS(=O)(=O)C4(C)CC4)C[C@H]3/C=C\CCCCC[C@H](NC(=O)NC(C)(C)C)C(=O)N2C1` [Example 78, (2S,6S,12Z,13aS,14aR,16aS)-6-[(tert-butylcarbamoyl)amino]-5′-methyl-N-[(1-methylcyclopropyl)sulfonyl]-5,16-dioxo-1,1′,2′,6,7,8,9,10,11,13a,14,15,16,16a-tetradecahydrospiro[cyclopropa[e]pyrrolo[1,2-a][1,4]diazacyclopentadecine-2,3′-pyrano[2,3-c]quinoline]-14a(5H)-carboxamide]: the EC50 in test [1] (setting [5]) worked out at 85 nM. Further, in test [2] (setting [6]), the IC50 turned out to be 3.11 nM.
The corresponding values for `Cc1nc2ccccc2c2c1O[C@]1(CC2)C[C@H]2C(=O)N[C@]3(C(=O)NS(=O)(=O)C4(C)CC4)C[C@H]3/C=C\CCCCC[C@H](NC(=O)OC3(C)CC3)C(=O)N2C1` [Example 79, 1-methylcyclopropyl [(2R,6S,12Z,13aS,14aR,16aS)-5′-methyl-14a-{[(1-methylcyclopropyl)sulfonyl]carbamoyl}-5,16-dioxo-1,1′,2′,5,6,7,8,9,10,11,13a,14,14a,15,16,16a-hexadecahydrospiro[cyclopropa[e]pyrrolo[1,2-a][1,4]diazacyclopentadecine-2,3′-pyrano[2,3-c]quinolin]-6-yl]carbamate] are 1.69 nM and 0.151 nM.
`COc1cc(Cl)c2nc(C(F)(F)F)c3c(c2c1)CC[C@]1(C[C@H]2C(=O)N[C@]4(C(=O)NS(=O)(=O)C5(C)CC5)C[C@H]4/C=C\CCCCC[C@H](NC(=O)OC(C)(C)C)C(=O)N2C1)O3` [Example 398, tert-butyl [(2R,6S,12Z,13aS,14aR,16aS)-7′-chloro-9′-methoxy-14a-{[(1-methylcyclopropyl)sulfonyl]carbamoyl}-5,16-dioxo-5′-(trifluoromethyl)-1,1′,2′,5,6,7,8,9,10,11,13a,14,14a,15,16,16a-hexadecahydrospiro[cyclopropa[e]pyrrolo[1,2-a][1,4]diazacyclopentadecine-2,3′-pyrano[2,3-c]quinolin]-6-yl]carbamate]: the IC50 in test [3] (setting [7]) worked out at 0.025 nM; in test [4] it was 2.35 nM; in test [2] (NS3/4A protease TRF assay, A156T mutant enzyme 0.4 nM), 0.496 nM.
As to `COc1ccc2nc(C(F)F)c3c(c2n1)CC[C@]1(C[C@H]2C(=O)N[C@]4(C(=O)NS(=O)(=O)C5(C)CC5)C[C@H]4/C=C\CCCCC[C@H](NC(=O)OCC(C)(C)C)C(=O)N2C1)O3` [Example 526, 2,2-dimethylpropyl [(2R,6S,12Z,13aS,14aR,16aS)-6′-(difluoromethyl)-2′-methoxy-14a-{[(1-methylcyclopropyl)sulfonyl]carbamoyl}-5,16-dioxo-1,5,6,7,8,9,9′,10,10′,11,13a,14,14a,15,16,16a-hexadecahydrospiro[cyclopropa[e]pyrrolo[1,2-a][1,4]diazacyclopentadecine-2,8′-pyrano[2,3-c][1,5]naphthyridin]-6-yl]carbamate], in test [3] (setting [7]), it took 0.005 nM to reach half-maximal inhibition (IC50). In addition, the EC50 in test [1] (Hepatitis C virus, HCV replicon, genotype 1b) is 2.59 nM.
For the compound `C=C[C@@H]1C[C@]1(NC(=O)[C@@H]1C[C@]23CCc4c(c(nc5ccc(OC)cc45)CCCCC[C@@H]4C[C@H]4OC(=O)N[C@@H](C(C)(C)C)C(=O)N1C2)O3)C(=O)NS(=O)(=O)C1(C)CC1` [Example 527], the IC50 in test [3] (setting [7]) stood at 0.026 nM; in test [4], 0.679 nM.
For the compound “tert-Butyl (2R,6S,13aS,14aR,16aS,Z)-10′-chloro-5′-(difluoromethyl)-9′-methoxy-14a-(1-methylcyclopropylsulfonylcarbamoyl)-5,16-dioxo-1′,2′,3,5,6,7,8,9,10,11, 13a,14,14a,15,16,16a-hexadecahydro-1H-spiro[cyclopropa[e]pyrrolo[1,2-a][1,4]diaza cyclopentadecine-2,3′-pyrano[2,3-c]quinoline]-6-ylcarbamate [Example 27]”, the IC50 in test [3] (NS3/4A genotype 1b, enzyme 0.2 nM, read-out: IC50 [gt-1b]) turned out to be 0.011 nM. Also, the EC50 in test [1] (genotype 1b replicon) is 10.6 nM.

(Values after patent US8987195B2 (priority 2012, dated 2015).)
